Source: US6005007A, “Retinoids, methods for their production and use” (priority 1997, dated 1999)

How the values were obtained:
[1] = biological target: T1, RARα (Homo sapiens, UniProt P10276); experiment: Receptor binding, RARα; settings: tritiated retinoid competition
T1 sequence (P10276 1-462): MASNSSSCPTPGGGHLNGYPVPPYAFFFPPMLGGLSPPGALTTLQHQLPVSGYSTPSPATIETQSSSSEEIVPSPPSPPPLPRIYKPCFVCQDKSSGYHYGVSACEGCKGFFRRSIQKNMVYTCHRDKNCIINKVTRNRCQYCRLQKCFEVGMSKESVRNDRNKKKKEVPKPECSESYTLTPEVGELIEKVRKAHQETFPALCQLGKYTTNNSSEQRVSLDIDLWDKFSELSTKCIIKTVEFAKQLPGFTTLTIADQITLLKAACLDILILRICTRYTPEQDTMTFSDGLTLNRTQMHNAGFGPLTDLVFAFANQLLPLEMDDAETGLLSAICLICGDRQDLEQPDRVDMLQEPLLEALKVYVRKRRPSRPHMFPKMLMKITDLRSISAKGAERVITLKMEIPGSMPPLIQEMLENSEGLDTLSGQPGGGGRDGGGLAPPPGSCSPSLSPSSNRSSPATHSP

[2] = tested on: RAR and RXR receptors; experiment: Co-transfection assay, RAR and RXR subfamilies (summary in words); format: cell-based; settings: CV-1 cells
Protocol: Utilizing the "cis-trans" or "co-transfection" assay described by Evans et al., Science, 240:889-95 (May 13, 1988), the disclosure of which is herein incorporated by reference, the retinoid compounds of the present invention were tested and found to have strong, specific activity as either selective RXR agonists, or as pan-agonist activators of both RAR and RXR receptors. This assay is described in further detail in U.S. Pat. Nos. 4,981,784 and 5,071,773, the disclosures of which are incorporated herein by reference.
In the co-transfection assay, a cloned cDNA for an IR (e.g., human RARα, RARβ, RXRγ) under the control of a constitutive promoter (e.g., the SV 40 promoter) is introduced by transfection (a procedure to induce cells to take up foreign genes) into a background cell substantially devoid of endogenous IRs. This introduced gene directs the recipient cells to make the IR protein of interest. A second gene is also introduced (co-transfected) into the same cells in conjunction with the IR gene. This second gene, comprising the cDNA for a reporter protein, such as firefly luciferase (LUC), controlled by an appropriate hormone responsive promoter containing a hormone response element (HRE). This reporter plasmid functions as a reporter for the transcription-modulating activity of the target IR. Thus, the reporter acts as a surrogate for the products (mRNA then protein) normally expressed by a gene under control of the target receptor and its native hormone.
The co-transfection assay can detect small molecule agonists or antagonists of target IRs. Exposing the transfected cells to an agonist ligand compound increases reporter activity in the transfected cells. This activity can be conveniently measured, e.g., by increasing luciferase production, which reflects compound-dependent, IR-mediated increases in reporter transcription. […]. Increasing concentrations of a suspected antagonist will decrease the reporter signal (e.g., luciferase production). The co-transfection assay is therefore useful to detect both agonists and antagonists of specific IRs. […]

[3] = biological target: T2, RXRα (Homo sapiens, UniProt P19793); experiment: Co-transfection assay, RXRα agonist activity; format: cell-based; parameters: expressed in transfected cells; host or cells: CV-1 (African green monkey kidney fibroblasts); settings: CV-1 cells, luciferase reporter, read-out: RXRα Pot
T2 sequence (P19793 1-462): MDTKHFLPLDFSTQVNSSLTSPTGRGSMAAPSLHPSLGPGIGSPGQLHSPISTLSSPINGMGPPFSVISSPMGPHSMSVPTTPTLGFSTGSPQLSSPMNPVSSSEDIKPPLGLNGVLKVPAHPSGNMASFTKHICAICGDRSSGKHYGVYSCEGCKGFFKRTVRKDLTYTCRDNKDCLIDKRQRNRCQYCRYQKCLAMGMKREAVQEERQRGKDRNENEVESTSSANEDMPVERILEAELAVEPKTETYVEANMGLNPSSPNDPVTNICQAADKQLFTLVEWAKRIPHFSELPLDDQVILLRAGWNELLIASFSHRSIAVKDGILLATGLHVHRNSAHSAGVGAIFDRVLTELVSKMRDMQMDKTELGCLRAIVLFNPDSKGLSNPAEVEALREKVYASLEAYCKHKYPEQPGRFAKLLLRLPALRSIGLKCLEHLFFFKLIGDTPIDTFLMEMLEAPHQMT

[4] = biological target: T3, RARβ (Homo sapiens, UniProt P10826); experiment: Receptor binding, RARβ; settings: tritiated retinoid competition
T3 sequence (P10826 1-448 isoform P10826-2): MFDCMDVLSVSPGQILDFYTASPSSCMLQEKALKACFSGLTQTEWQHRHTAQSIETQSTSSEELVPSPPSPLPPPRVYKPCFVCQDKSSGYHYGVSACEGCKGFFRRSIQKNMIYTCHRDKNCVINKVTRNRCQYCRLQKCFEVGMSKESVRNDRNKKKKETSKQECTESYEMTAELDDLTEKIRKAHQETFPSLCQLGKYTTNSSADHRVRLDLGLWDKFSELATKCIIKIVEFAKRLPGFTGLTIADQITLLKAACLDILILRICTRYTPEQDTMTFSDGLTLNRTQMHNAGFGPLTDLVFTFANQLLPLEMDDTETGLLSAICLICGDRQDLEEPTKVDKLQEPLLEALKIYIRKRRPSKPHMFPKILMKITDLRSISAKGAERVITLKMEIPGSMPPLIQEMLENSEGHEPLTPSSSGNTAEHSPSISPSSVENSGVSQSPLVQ

SMILES | Kd [1] [nM] | RXR selectivity / pan-agonist activity [2] | EC50 [3] [nM] | Kd [4] [nM]
CC(/C=C/CC1(c2ccc3c(c2)C(C)(C)CCC3(C)C)CC1)=C\C(=O)O [Compound 101, (2E, 4E)-6-[1-(5,5,8,8-Tetramethyl-5,6,7,8-tetrahydronaphtha-len-2-yl)cyclopropanyl]-3-methyl hexadienoic acid] | 644 | pan-agonists that display superior potency profiles to that of the known pan-agonist compound 9-cis retinoic acid | 13 | 463
CC(/C=C/CC1(c2cc(C(C)(C)C)cc3c2CCC3(C)C)CC1)=C\C(=O)O [Compound 107, (2E, 4E)-6-[1-(6-t-butyl-1,1-dimethyl-indan-4-yl)-cyclopropyl]-3-methyl hexadienoic acid] | > 5000 | extremely potent RXR selective compounds | 34 | > 5000
CC(/C=C/CC1(c2ccc3c(c2)C(C)(C)CCC3(C)C)CCCC1)=C\C(=O)O [Compound 108, (2E, 4E)-6-[(5,5,8,8-Tetramethyl-5,6,7,8-tetrahydronaphtha-len-2-yl)cyclopentane-1-yl]-3-methyl hexadienoic acid] | > 5000 | extremely potent RXR selective compounds | 63 | > 5000
